Like-named read-outs stand apart in the source and are kept apart here.
Legend:
[1] = target: T1, FKBP12 (Homo sapiens, UniProt P62942); assay: competitive fluorescence polarization assay, binding to FKBP12; settings: competitive FP assay
[2] = target: BRD2BD2 (Homo sapiens, UniProt P25440); assay: competitive FP assay, BRD2 BD2 -/+ FKBP12; format: binding
[3] = target: T2, BRD3BD2 (Homo sapiens, UniProt Q15059); assay: competitive FP assay, BRD3 BD2 -/+ FKBP12; format: binding
T2 construct: to the isolated BD1 and BD2 domains of BRD2, BRD3 and BRD4
T2 sequence (Q15059 306-415 limits assumed): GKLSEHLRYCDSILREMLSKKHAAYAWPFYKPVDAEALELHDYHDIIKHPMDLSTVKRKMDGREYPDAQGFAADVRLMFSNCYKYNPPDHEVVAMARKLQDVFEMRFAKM

[4] = target: BRD4 43-463 Y97A (Homo sapiens, UniProt O60885, Y97A); assay: competitive FP assay, BRD4 tandem construct Y97A; format: binding
[5] = system: BRD4 43-463 Y97A; assay: competitive FP assay, BRD4 tandem construct Y97A; format: binding
[6] = target: T3, BRD3BD1 (Homo sapiens, UniProt Q15059); assay: competitive FP assay, BRD3 BD1 -/+ FKBP12; format: binding
T3 construct: to the isolated BD1 and BD2 domains of BRD2, BRD3 and BRD4
T3 sequence (Q15059 34-140 limits assumed): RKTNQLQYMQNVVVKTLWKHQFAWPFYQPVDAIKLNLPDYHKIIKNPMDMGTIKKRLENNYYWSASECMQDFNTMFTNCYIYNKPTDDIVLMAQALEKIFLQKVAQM

[7] = target: T1, FKBP12; assay: NanoBRET FKBP12 in intact HEK293 cells; format: cell-based
[8] = system: MV4-11 cells; assay: CellTiter-Glo cell viability, MV4-11; format: cell-based, human; settings: five days, without FKBP12 PROTAC; for IC50: Homo sapiens, MV4-11, 120 h, read-out: Cell toxicity (MV4-11) - FKBP12 PROTAC IC50
[9] = target: T4, His-BRD4^BD2 + eGFP-FKBP12 (Homo sapiens, UniProt O60885+P62942); assay: HTRF ternary complex formation BRD4 BD2 + EGFP-FKBP12; format: binding; settings: eGFP-FKBP12 5 µM, His-BRD4^BD2 100 nM; read-out: HTRF BRD4^BD2 + GFP-FKBP12 Kd
T4 construct: the His6-tag of the respective BD1 or BD2 domain of BRD4 and EGFP-labeled FKBP12

[10] = system: BRD4 43-463 Y390A; assay: competitive FP assay, BRD4 tandem construct Y390A; format: binding
[11] = target: BRD4 43-463 Y390A (Homo sapiens, UniProt O60885, Y390A); assay: competitive FP assay, BRD4 tandem construct Y390A; format: binding
[12] = target: T5, BRD4^BD2 (Homo sapiens, UniProt O60885); assay: competitive fluorescence polarization assay, BRD4 BD2 -/+ presenter protein; format: binding; settings: for α BRD4^BD2 (binding cooperativity factor): ratio of binding in absence or presence of FKBP12
T5 construct: to the isolated BD1 and BD2 domains of BRD2, BRD3 and BRD4

[13] = target: BRD4 43-463 (Homo sapiens, UniProt O60885); assay: competitive FP assay, BRD4 tandem bromo domain construct; format: binding
[14] = target: T6, BRD4^BD1 (Homo sapiens, UniProt O60885); assay: competitive fluorescence polarization assay, BRD4 BD1 -/+ presenter protein; format: binding; settings: for α BRD4^BD1 (binding cooperativity factor): ratio of binding in absence or presence of FKBP12
T6 construct: to the isolated BD1 and BD2 domains of BRD2, BRD3 and BRD4

[15] = system: INA-6 cells; assay: cell viability, INA-6 FKBP12 knockout or NTC; format: cell-based, human; settings: for IC50: Homo sapiens, INA-6
[16] = system: MYC mRNA; assay: quantitative RT-PCR of MYC mRNA, MV4-11; format: cell-based, human; settings: Homo sapiens, 6 h; MV4-11, six hours, without FKBP12 PROTAC; read-out: MYC mRNA levels IC50
[17] = target: T7, BRD4 (Homo sapiens, UniProt O60885); assay: NanoBRET BRD4, transient BRD4-NanoLuc in HEK293T cells; format: cell-based; settings: intact HEK293 cells
T7 construct: full-length BRD4 fused to NanoLuc at N terminus; expressed in transfected cells; host or cells: HEK293T
In short: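 BRD4 engagement measured in HEK293T cells transiently expressing N-terminal NanoLuc-BRD4 (20 h), with BRD Tracer-02 at its KD concentration. Cells equilibrated with serially diluted inhibitors for 2 h at 37 °C. Donor 450 nm/acceptor 610 nm BRET read; IC50 from normalized 3-parameter fit.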

[18] = 15 µM FKBP12, read-out: Binding to BRD2BD2 + FKBP12 Kd
[19] = absence of FKBP12, read-out: Binding to BRD2BD2 - FKBP12 Kd
[20] = 15 µM FKBP12, read-out: Binding to BRD3BD2 + FKBP12 Kd
[21] = absence of FKBP12, read-out: Binding to BRD3BD2 - FKBP12 Kd
[22] = Binding to BRD4 43-463 Y97A + FKBP12 Kd, 15 µM FKBP12
[23] = Binding to BRD4 43-463 Y97A - FKBP12 Kd, absence of FKBP12
[24] = 15 µM FKBP12, read-out: Binding to BRD3BD1 + FKBP12 Kd
[25] = absence of FKBP12, read-out: Binding to BRD3BD1 - FKBP12 Kd
[26] = Binding to BRD4 43-463 Y390A + FKBP12 Kd, 15 µM FKBP12
[27] = 15 µM FKBP51FK1, read-out: Binding to BRD4BD2 + FKBP51FK1 Kd
[28] = absence of FKBP12, 2 nM JQ1-FL tracer, read-out: Binding to BRD4^BD2 - FKBP12 Kd
[29] = absence of FKBP51FK1 (SI Table 3), read-out: Binding to BRD4BD2 - FKBP51FK1 Kd
[30] = presence of 15 µM FKBP12, read-out: Binding to BRD4^BD2 + FKBP12 Kd (converted)
[31] = Binding to BRD4 43-463 + FKBP12 Kd, 15 µM FKBP12
[32] = Binding to BRD4 43-463 - FKBP12 Kd, absence of FKBP12
[33] = 15 µM FKBP51FK1, read-out: Binding to BRD4BD1 + FKBP51FK1 Kd
[34] = absence of FKBP12, 2 nM JQ1-FL tracer, read-out: Binding to BRD4^BD1 - FKBP12 Kd
[35] = absence of FKBP51FK1 (SI Table 3), read-out: Binding to BRD4BD1 - FKBP51FK1 Kd
[36] = presence of 15 µM FKBP12, read-out: Binding to BRD4^BD1 + FKBP12 Kd (converted)
[37] = values quoted in rebuttal letter (earlier version of Tab. 1), read-out: binding to BRD4BD1 + FKBP12
[38] = FKBP12 knockout cells, read-out: Cell toxicity INA-6 FKBP12 KO IC50
[39] = nontargeted control (NTC) cells, read-out: Cell toxicity INA-6 NTC IC50

BRD2BD2, sequence (P25440 344-453 limits assumed): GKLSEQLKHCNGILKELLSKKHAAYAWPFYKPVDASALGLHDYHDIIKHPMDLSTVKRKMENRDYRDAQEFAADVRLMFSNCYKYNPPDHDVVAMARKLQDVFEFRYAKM

Compound: Cc1sc2c(c1C)C(c1ccc(Cl)cc1)=NC(CC(=O)N1CCC3(CC1)CC(n1cc(C4CN(Cc5ccccn5)C(=O)C5CCCC4N5S(=O)(=O)c4cc(Cl)cc(Cl)c4)nn1)C3)c1nnc(C)n1-2 (centres unmarked) [a13c]
- Kd [1]: 1.7 nM
- α BRD2BD2 [2]: 1.6
- Kd [2, 18]: 600 ± 100 nM
- Kd [2, 19]: 960 ± 350 nM
- α BRD3BD2 [3]: 0.3
- Kd [3, 20]: 3000 ± 350 nM
- Kd [3, 21]: 950 ± 100 nM
- Kd [4, 22]: 670 ± 90 nM
- Kd [4, 23]: 800 ± 110 nM
- α BRD4 43-463 Y97A [5]: 1.2
- α BRD3BD1 [6]: 46
- Kd [6, 24]: 56 ± 5 nM
- Kd [6, 25]: 2600 ± 1000 nM
- IC50 [7]: 76 nM
- IC50 [8]: 7.7 nM
- Kd [9]: 300 ± 30 nM
- α BRD4 43-463 Y390A [10]: 57
- Kd [11, 26]: 15 ± 2 nM
- Kd ([11]; absence of FKBP12): 860 ± 140 nM
- Kd [12, 27]: 190 ± 30 nM
- Kd [12, 28]: 2300 ± 400 nM
- Kd [12, 29]: 1600 ± 400 nM
- Kd [12, 30]: 1900 nM
- α BRD4 43-463 [13]: 20
- Kd [13, 31]: 39 ± 3 nM
- Kd [13, 32]: 790 ± 120 nM
- Kd [14, 33]: 870 ± 100 nM
- Kd [14, 34]: 4600 ± 800 nM
- Kd [14, 35]: 1500 ± 450 nM
- Kd [14, 36]: 35 nM
- α BRD4^BD1 (binding cooperativity factor) [14]: 131
- Kd [14, 37]: 20 nM
- Cell toxicity INA-6 FKBP12 KO IC50 ([15]; FKBP12 knockout cells): hardly observable
- IC50 [15, 38]: > 1600 nM
- IC50 [15, 39]: 13 nM
- IC50 [16]: 2.8 nM
- IC50 [17]: 9060 nM

Compound: Cc1sc2c(c1C)C(c1ccc(Cl)cc1)=NC(CC(=O)NCCOCCn1cc(COCC3CN(C(C)c4ccccn4)C(=O)C4CCCC3N4S(=O)(=O)c3cc(Cl)cc(Cl)c3)nn1)c1nnc(C)n1-2 (centres unmarked) [a1dj]
- Kd [1]: 0.4 nM
- α BRD2BD2 [2]: 2.9
- Kd [2, 18]: 48 ± 17 nM
- Kd [2, 19]: 140 ± 65 nM
- α BRD3BD2 [3]: 1.1
- Kd [3, 20]: 150 ± 30 nM
- Kd [3, 21]: 170 ± 50 nM
- Kd [4, 22]: 84 ± 10 nM
- Kd [4, 23]: 100 ± 17 nM
- α BRD4 43-463 Y97A [5]: 1.2
- Kd [6, 24]: 25 ± 3 nM
- Kd [6, 25]: 290 ± 35 nM
- IC50 [7]: 2.6 nM
- IC50 [8]: 0.09 nM
- Cell toxicity (MV4-11) - FKBP12 PROTAC IC50 [8]: sub-nanomolar
- Kd [9]: 30 ± 7 nM
- α BRD4 43-463 Y390A [10]: 12
- Kd [11, 26]: 9 ± 1 nM
- Kd ([11]; absence of FKBP12): 106 ± 7 nM
- Kd [12, 27]: 1000 ± 500 nM
- Kd [12, 28]: 400 ± 90 nM
- Kd [12, 29]: 150 ± 50 nM
- Kd [12, 30]: 90 nM
- α BRD4^BD2 (binding cooperativity factor) [12]: 4.4
- Kd [13, 31]: 31 ± 2 nM
- Kd [13, 32]: 266 ± 16 nM
- Kd [14, 33]: 680 ± 100 nM
- Kd [14, 34]: 470 ± 60 nM
- Kd [14, 35]: 250 ± 80 nM
- Kd [14, 36]: 39 nM
- α BRD4^BD1 (binding cooperativity factor) [14]: 12
- Kd [14, 37]: 32 nM
- Cell toxicity INA-6 FKBP12 KO IC50 ([15]; FKBP12 knockout cells): hardly observable
- IC50 [15, 38]: 480 nM
- IC50 [15, 39]: 0.4 nM
- Cell toxicity INA-6 NTC IC50 ([15]; nontargeted control (NTC) cells): sub-nanomolar
- IC50 [16]: 5 nM
- IC50 [17]: 653 nM

Compound: Cc1sc2c(c1C)C(c1ccc(C#CCNC(=O)COCCn3cc(C4CN(Cc5ccccn5)C(=O)C5CCCC4N5S(=O)(=O)c4cc(Cl)cc(Cl)c4)nn3)cc1)=NC(CC(=O)OC(C)(C)C)c1nnc(C)n1-2 (centres unmarked) [b3c]
- Kd [1]: 3.7 nM
- α BRD2BD2 [2]: 38
- Kd [2, 18]: 4 ± 2 nM
- Kd [2, 19]: 150 ± 50 nM
- α BRD3BD2 [3]: 3.8
- Kd [3, 20]: 26 ± 6 nM
- Kd [3, 21]: 100 ± 30 nM
- Kd [4, 22]: 22 ± 3 nM
- Kd [4, 23]: 178 ± 20 nM
- α BRD4 43-463 Y97A [5]: 8.1
- α BRD3BD1 [6]: 2.7
- Kd [6, 24]: 13 ± 3 nM
- Kd [6, 25]: 35 ± 7 nM
- IC50 [7]: 29 nM
- IC50 [8]: 0.06 nM
- Cell toxicity (MV4-11) - FKBP12 PROTAC IC50 [8]: sub-nanomolar
- Kd [9]: 8 ± 3 nM
- α BRD4 43-463 Y390A [10]: 15
- Kd [11, 26]: 1.7 ± 0.5 nM
- Kd ([11]; absence of FKBP12): 25 ± 4 nM
- Kd [12, 27]: 250 ± 70 nM
- Kd [12, 28]: 150 ± 20 nM
- Kd [12, 29]: 120 ± 40 nM
- Kd [12, 30]: 13 nM
- α BRD4^BD2 (binding cooperativity factor) [12]: 12
- α BRD4 43-463 [13]: 5.6
- Kd [13, 31]: 14 ± 2 nM
- Kd [13, 32]: 79 ± 5 nM
- Kd [14, 33]: 50 ± 17 nM
- Kd [14, 34]: 130 ± 20 nM
- Kd [14, 35]: 73 ± 20 nM
- Kd [14, 36]: 8 nM
- α BRD4^BD1 (binding cooperativity factor) [14]: 16
- IC50 [15, 38]: 90 nM
- IC50 [15, 39]: 1.8 nM
- concentration inducing reduced cell viability in FKBP12-negative cells ([15]; INA-6 FKBP12 knockout): ≥ 100 nM
- IC50 [16]: 2 nM
- IC50 [17]: 194 nM

From paper PMC13586308, “Cell type–selective targeting by heterobifunctional protein binders via in-cell enrichment” (Nature Communications, 2026)
